Data published in patent publication US11439622B2 (OXFORD UNIVERSITY INNOVATION LIMITED, priority 2015, dated 2022).

Legend:
Format in all cases: biochemical
[1] = target: VIM-2 (Veronese metallo-β-lactamase-2) (Escherichia coli, UniProt Q5U7L7); assay: Enzyme inhibition assay, VIM-2; settings: read-out: pIC50 VIM-2 (converted)
Procedure: (§1) The biological activity of the compounds of the present invention was tested using standard assay protocols.^7 The following representative enzymes NDM-1 (New Delhi metallo-β-lactamase-1), IMP-1 (Imipenemase-1) and VIM-2 (Veronese metallo-β-lactamase-2) were selected from different clinically relevant B1 metallo-β-lactamases.

[2] = target: NDM-1 (New Delhi metallo-β-lactamase-1) (Klebsiella pneumoniae, UniProt C7C422); assay: Enzyme inhibition assay, NDM-1; settings: for IC50: read-out: pIC50 NDM-1 (converted)
Chain of NDM-1 (New Delhi metallo-β-lactamase-1) (C7C422 29-270, looked up, species assumed): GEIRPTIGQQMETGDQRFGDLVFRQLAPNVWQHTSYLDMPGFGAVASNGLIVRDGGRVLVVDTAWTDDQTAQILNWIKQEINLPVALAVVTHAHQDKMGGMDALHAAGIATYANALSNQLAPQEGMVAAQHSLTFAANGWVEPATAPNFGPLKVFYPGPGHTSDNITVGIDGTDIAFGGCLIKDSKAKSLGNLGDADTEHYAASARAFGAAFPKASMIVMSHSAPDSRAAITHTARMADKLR
Procedure: as §1

IMP-1 (Imipenemase-1) = IMP-1 (Imipenemase-1) (Serratia marcescens, UniProt P52699); assay: Enzyme inhibition assay, IMP-1; settings: read-out: pIC50 IMP-1 (converted)
Chain of IMP-1 (Imipenemase-1) (P52699 19-246, looked up, species assumed): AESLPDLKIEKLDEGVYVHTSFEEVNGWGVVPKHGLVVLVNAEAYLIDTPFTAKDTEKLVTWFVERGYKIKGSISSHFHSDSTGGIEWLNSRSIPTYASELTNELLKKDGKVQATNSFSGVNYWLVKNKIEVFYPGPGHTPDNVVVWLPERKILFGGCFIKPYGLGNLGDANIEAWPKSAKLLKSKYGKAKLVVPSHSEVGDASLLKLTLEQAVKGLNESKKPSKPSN
Procedure: as §1

Row | IC50 [1] | IC50 [2] | IC50 (IMP-1 (Imipenemase-1)) | pIC50 NDM-1 [2] | SMILES
1 | 794 nM | 50.1 nM | – | – | Cc1cccc2c(-c3cccc(S(N)(=O)=O)c3)c(C(=O)O)[nH]c12 [Example 14, 7-methyl-3-(3-sulfamoylphenyl)-1H-indole-2-carboxylic acid]
2 | – | 79.4 nM | – | – | Cc1cccc2c(C3=CCCC3)c(C(=O)O)[nH]c12 [Example 27, 3-(cyclopent-1-en-1-yl)-7-methyl-1H-indole-2-carboxylic acid]
3 | – | 501 nM | – | – | Cc1cccc2c(-c3ccc(Cl)cc3)c(C(=O)O)n(C)c12 [Example 35, 3-(4-chlorophenyl)-1,7-dimethyl-indole-2-carboxylic acid]
4 | 158 nM | 39.8 nM | – | – | Cc1cc(C)cc(-c2c(C(=O)O)[nH]c3c(C)cccc23)c1 [Example 38, 3-(3,5-dimethylphenyl)-7-methyl-1H-indole-2-carboxylic acid]
5 | 126 nM | 126 nM | – | – | Cc1cccc2c(-c3ccccc3Cl)c(C(=O)O)[nH]c12 [Example 39, 3-(2-chlorophenyl)-7-methyl-1H-indole-2-carboxylic acid]
6 | – | 631 nM | – | – | Cc1cccc2c(I)c(C(=O)O)[nH]c12 [Example 46, 3-iodo-7-methyl-1H-indole-2-carboxylic acid]
7 | – | 251 nM | 2000 nM | – | O=C(O)c1[nH]c2c(C(F)(F)F)cccc2c1-c1ccc(F)cc1 [Example 51, 3-(4-fluorophenyl)-7-(trifluoromethyl)-1H-indole-2-carboxylic acid]
8 | – | 12.6 nM | 77.6 nM | – | CNC(=O)c1ccc(-c2c(C(=O)O)[nH]c3c(C(C)C)cccc23)cc1 [Example 87, 7-isopropyl-3-(4-(methylcarbamoyl)phenyl)-1H-indole-2-carboxylic acid]
9 | – | 26.9 nM | 21.4 nM | – | Cc1ccc(-c2c(C(=O)O)[nH]c3c(C(C)C)cccc23)s1 [Example 89, 7-isopropyl-3-(5-methylthiophen-2-yl)-1H-indole-2-carboxylic acid]
10 | – | 12.6 nM | 61.7 nM | – | CC(=O)NCc1ccc(-c2c(C(=O)O)[nH]c3c(C(C)C)cccc23)cc1 [Example 90, 3-(4-(acetamidomethyl)phenyl)-7-isopropyl-1H-indole-2-carboxylic acid]
11 | – | 53.7 nM | 79.4 nM | – | CN(C)C(=O)c1ccc(-c2c(C(=O)O)[nH]c3c(C(C)(C)C)cccc23)cc1 [Example 92, 7-(tert-butyl)-3-(4-(dimethylcarbamoyl)phenyl)-1H-indole-2-carboxylic acid]
12 | – | 79.4 nM | 85.1 nM | – | CN(C)S(=O)(=O)c1ccc(-c2c(C(=O)O)[nH]c3c(C(C)(C)C)cccc23)cc1 [Example 93, 7-(tert-butyl)-3-(4-(N,N-dimethylsulfamoyl)phenyl)-1H-indole-2-carboxylic acid]
13 | – | 2.69 nM | 24 nM | – | CC(C)c1cccc2c(-c3ccc(S(=O)(=O)N4CCOCC4)cc3)c(C(=O)O)[nH]c12 [Example 95, 7-isopropyl-3-(4-(morpholinosulfonyl)phenyl)-1H-indole-2-carboxylicacid]
14 | – | 3.98 nM | 7.76 nM | – | CC(C)c1cccc2c(-c3ccc(CNS(C)(=O)=O)cc3)c(C(=O)O)[nH]c12 [Example 96, 7-isopropyl-3-(4-(methylsulfonamidomethyl)phenyl)-1H-indole-2-carboxylic acid]
15 | – | 10 nM | 437 nM | – | CC(C)c1cccc2c(-c3ccc(CN(C)C)cc3)c(C(=O)O)[nH]c12 [Example 97, 3-(4-((dimethylamino)methyl)phenyl)-7-isopropyl-1H-indole-2-carboxylicacid]
16 | – | 6.76 nM | 219 nM | – | CC(C)c1cccc2c(-c3ccc(N4CCOCC4)nc3)c(C(=O)O)[nH]c12 [Example 98, 7-isopropyl-3-(6-morpholinopyridin-3-yl)-1H-indole-2-carboxylic acid]

Row | IC50 [1] | IC50 [2] | IC50 (IMP-1 (Imipenemase-1)) | pIC50 NDM-1 [2] | SMILES
17 | – | 0.851 nM | 8.32 nM | – | CC(C)c1cccc2c(-c3ccc(S(=O)(=O)N4CCCC4)cc3)c(C(=O)O)[nH]c12 [Example 99, 7-isopropyl-3-(4-(pyrrolidin-1-ylsulfonyl)phenyl)-1H-indole-2-carboxylic acid]
18 | – | 15.8 nM | 22.4 nM | – | CC(C)c1cccc2c(-c3ccc(Cn4cnnn4)cc3)c(C(=O)O)[nH]c12 [Example 100, 3-(4-((1H-tetrazol-1-yl)methyl)phenyl)-7-isopropyl-1H-indole-2-carboxylic acid]
19 | – | 15.8 nM | 1550 nM | – | CC(C)c1cccc2c(-c3ccc(C(=O)N(C)C)cc3Cl)c(C(=O)O)[nH]c12 [Example 101, 3-(2-chloro-4-(dimethylcarbamoyl)phenyl)-7-isopropyl-1H-indole-2-carboxylic acid]
20 | – | 3160 nM | – | – | O=C(O)c1[nH]c2ccccc2c1-c1ccccc1 [Example 109, 3-phenyl-1H-indole-2-carboxylic acid]
21 | – | 2000 nM | – | – | Cc1cccc2c(-c3ccc(F)cc3)c(C(=O)NNc3ccc(S(C)(=O)=O)cc3)[nH]c12 [Example 110, 3-(4-fluorophenyl)-7-methyl-N′-(4-(methylsulfonyl)phenyl)-1H-indole-2-carbohydrazide]
22 | 7940 nM | 1580 nM | – | – | O=C(O)c1[nH]c2c(F)cccc2c1-c1ccc(F)cc1 [Example 112, 7-fluoro-3-(4-fluorophenyl)-1H-indole-2-carboxylic acid]
23 | – | 7940 nM | – | – | CS(=O)(=O)c1ccc(NNC(=O)c2[nH]c3ccccc3c2-c2ccccc2)cc1 [Example 113, N′-(4-(methylsulfonyl)phenyl)-3-phenyl-1H-indole-2-carbohydrazide]
24 | – | 3160 nM | – | – | Cc1cccc2cc(C(=O)O)[nH]c12 [Example 114, 7-methyl-1H-indole-2-carboxylic acid]
25 | – | 1580 nM | – | – | Cc1cccc2c(Br)c(C(=O)O)[nH]c12 [Example 115, 3-bromo-7-methyl-1H-indole-2-carboxylic acid]
26 | – | 15800 nM | > 100000 nM | – | Cc1cccc2c(C3CCNCC3)c(C(=O)O)[nH]c12 [Example 118, 7-methyl-3-(piperidin-4-yl)-1H-indole-2-carboxylic acid]
27 | 39800 nM | 6310 nM | – | – | Cc1ccc2[nH]c(C(=O)O)c(-c3ccc(F)cc3)c2c1 [Example 121, 3-(4-fluorophenyl)-5-methyl-1H-indole-2-carboxylic acid]
28 | > 20000 nM | – | > 20000 nM | – | CNC(=O)c1[nH]c2c(C(C)C)cccc2c1-c1ccc(S(=O)(=O)N(C)C)cc1 [Example 122, 3-(4-(N,N-dimethylsulfamoyl)phenyl)-7-isopropyl-N-methyl-1H-indole-2-carboxamide]
29 | – | – | – | N.I. | CC(C)c1cccc2c(-c3ccc(S(=O)(=O)N(C)C)cc3)c(C(N)=O)[nH]c12 [Example 125, 3-(4-(N,N-dimethylsulfamoyl)phenyl)-7-isopropyl-1H-indole-2-carboxamide]
30 | – | – | – | N.I. | CC(C)c1cccc2c(-c3ccc(S(=O)(=O)N(C)C)cc3)c(C#N)[nH]c12 [Example 126, 4-(2-cyano-7-isopropyl-1H-indol-3-yl)-N,N-dimethylbenzenesulfonamide]
31 | – | 214 nM | – | – | CC(C)c1cccc2c(-c3ccc(S(=O)(=O)N(C)C)cc3)c(C(=O)Nc3ncco3)[nH]c12 [Example 128, 3-(4-(N,N-dimethylsulfamoyl)phenyl)-7-isopropyl-N-(oxazol-2-yl)-1H-indole-2-carboxamide]
